Here are results for 1 molecule from patent publication US11130762B2, “Azaaryl derivative, preparation method therefor, and application thereof for use in pharmacy” (Abbisko Therapeutics Co., Ltd., priority 2017, dated 2021).

Read-outs that look alike come from different tables or passages of the source.

In one experiment the target is CSF-1R (Homo sapiens, UniProt P07333). The experiment in a line: CSF-1R in vitro biochemical kinase study (ADP-Glo assay). Particulars: 500 μM ATP, * = average of multiple tests, read-out: Enzymatic experiment CSF1R IC50. As for the experimental part:
A. CSF-1R In Vitro Biochemical Kinase Study
In the present invention, the inhibitory activity of compounds against the CSF-1R activity was determined by using CSF-1R ADP-Glo assay. The compound-mediated inhibition effect was achieved by inhibiting the production of ADP from consumption of ATP, and the activities of compounds were evaluated by using the ADP-Glo kit (Promega, cat. No. V9101). The specific experimental process was as follows:
1. The kinase reaction performed in the present invention was carried out in a 384-well plate (Perkinelmer, cat. No. 6007290), 3.95 nM of CSF-1R, 500 μM of ATP, and 0.2 mg/mL of polypeptide (Poly (Glu4, Try1), Sigma, cat. No. P0275) were respectively weighed and added to each well:
2. following reagents were then added to each well to reach the final reaction system: 40 mM Tris, pH 7.5, 20 mM MgCl2, 0.01% Triton X-100, 0.1 mg/mL BSA, 2.5 mM DTT, and 0.1% DMSO;
3. the reaction was conducted at 30° C. for 60 min;
4. then an equal volume of stop solution (ADP-Glo) was added to the kinase reaction system;
5. the mixed solution was incubated at 25° C. for 60 min, and the kinase reaction was then terminated;
6. a two-fold volume of detection reagent was then added to each well;
7. the mixed solution was incubated at 25° C. for 30 min;
8. the compound IC50 value was measured by using a plate reader (Tecan, M1000) and a four-parameter curve was generated in Graphpad Prism.

The next experiment deals with KIT kinase (Homo sapiens, UniProt P10721). The experiment in a line: KIT in vitro biochemical kinase study (Caliper EZ Reader). Particulars: Caliper mobility shift; read-out: Enzymatic experiment KIT IC50. As for the experimental part: (§1) B. KIT/PDGFRA In Vitro Biochemical Kinase Study
KIT kinase, sequence (P10721 26-976): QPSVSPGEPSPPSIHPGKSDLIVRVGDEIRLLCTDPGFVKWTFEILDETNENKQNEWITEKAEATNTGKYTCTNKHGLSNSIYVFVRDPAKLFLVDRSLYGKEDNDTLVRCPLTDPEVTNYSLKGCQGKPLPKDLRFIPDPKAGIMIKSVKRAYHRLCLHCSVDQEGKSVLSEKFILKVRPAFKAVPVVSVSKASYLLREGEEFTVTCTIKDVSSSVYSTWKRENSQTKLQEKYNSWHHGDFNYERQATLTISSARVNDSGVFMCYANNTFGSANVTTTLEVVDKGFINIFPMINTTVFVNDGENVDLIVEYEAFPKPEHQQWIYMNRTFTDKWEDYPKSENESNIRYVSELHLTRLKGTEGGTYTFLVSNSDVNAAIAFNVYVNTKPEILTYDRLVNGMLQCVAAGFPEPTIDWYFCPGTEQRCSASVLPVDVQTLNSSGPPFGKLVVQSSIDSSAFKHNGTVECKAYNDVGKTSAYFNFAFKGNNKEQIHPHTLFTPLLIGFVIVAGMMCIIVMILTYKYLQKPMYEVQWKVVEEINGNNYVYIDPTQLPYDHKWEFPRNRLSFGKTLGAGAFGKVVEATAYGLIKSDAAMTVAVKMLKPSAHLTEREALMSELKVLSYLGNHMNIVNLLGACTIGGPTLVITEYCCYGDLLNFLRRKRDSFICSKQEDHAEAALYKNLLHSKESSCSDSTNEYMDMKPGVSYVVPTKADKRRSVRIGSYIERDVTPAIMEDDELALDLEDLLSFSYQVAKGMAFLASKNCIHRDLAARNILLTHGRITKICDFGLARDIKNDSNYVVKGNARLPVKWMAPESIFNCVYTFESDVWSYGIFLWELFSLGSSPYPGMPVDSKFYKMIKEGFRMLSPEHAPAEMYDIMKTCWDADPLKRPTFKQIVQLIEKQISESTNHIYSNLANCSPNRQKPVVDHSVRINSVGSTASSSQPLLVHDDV
(§2) 1. Preparation of 1-Fold Kinase Buffer and Stop Solution
(§3) 1.2 stop solution: 100 mM HEPES, pH 7.5, 0.015% Brij-35, 0.2% Coating Reagent #3, 50 mM EDTA
(§4) 2. Preparation of Compound Solution
(§5) 2.1 Dilution of Compound Solution
(§6) 1) The final concentration of the compound solution was 40 μM, and the concentration of the prepared stock solution was 50 times of the final concentration, i.e., 2 mM.
(§7) 2) 80 μL of 100% DMSO was added to the second well of the 96-well plate, then 20 μL of 10 mM compound solution was added, and thereby 2 mM compound solution was prepared, 60 μL of 100% DMSO was added to other wells, 20 μL of compound was taken from the second well, added to the third well and diluted by 4 times. This serial 4-time dilution was conducted in sequence for the total of 10 concentrations.
(§8) 2.2 5-Fold Compound Solution Transferred to a Reaction Plate
(§9) 1) 10 μL of solution was taken from each well of the above 96-well plate and added to another 96-well plate, and 90 μL of kinase buffer was added.
(§10) 2) 5 μL of solution was taken from the above 96-well plate and added to a 384-well reaction plate.
(§11) 1) KIT/PDGFRA kinase was added to the 1-fold kinase buffer solution to obtain a 2.5-fold kinase solution.
(§12) 2) FAM-labeled polypeptide and ATP were added to the 1-fold kinase buffer solution to obtain a 2.5-fold substrate solution.
(§13) 3) 10 μL of 2.5-fold kinase solution was added to the 384-well reaction plate, which already contained 5 μL of 5-fold compound in 10% DMSO. And the mixed solution was incubated at room temperature for 10 min.
(§14) 4) 10 μL of 2.5-fold substrate solution was added to the 384-well reaction plate.
(§15) 5) Kinase reaction and termination: the mixed solution was incubated at 28° C. for a certain period of time, and 25 μL of stop solution was added to stop the reaction.
(§16) 2.4 Data Reading of Caliper EZ Reader II
(§17) 2.5 Calculation of Percent Inhibition and IC50
(§18) 1) Percent conversion data were copied from the Caliper EZ Reader. […]

The next experiment deals with PDGFRA kinase (Homo sapiens, UniProt P16234). The experiment in a line: PDGFRA in vitro biochemical kinase study (Caliper EZ Reader). Particulars: Caliper mobility shift; read-out: Enzymatic experiment PDGFRA IC50. As for the experimental part: as §1, §2, §3, §4, §5, §6, §7, §8, §9, §10, §11, §12, §13, §14, §15, §16, §17, §18
PDGFRA kinase, sequence (P16234 24-1089): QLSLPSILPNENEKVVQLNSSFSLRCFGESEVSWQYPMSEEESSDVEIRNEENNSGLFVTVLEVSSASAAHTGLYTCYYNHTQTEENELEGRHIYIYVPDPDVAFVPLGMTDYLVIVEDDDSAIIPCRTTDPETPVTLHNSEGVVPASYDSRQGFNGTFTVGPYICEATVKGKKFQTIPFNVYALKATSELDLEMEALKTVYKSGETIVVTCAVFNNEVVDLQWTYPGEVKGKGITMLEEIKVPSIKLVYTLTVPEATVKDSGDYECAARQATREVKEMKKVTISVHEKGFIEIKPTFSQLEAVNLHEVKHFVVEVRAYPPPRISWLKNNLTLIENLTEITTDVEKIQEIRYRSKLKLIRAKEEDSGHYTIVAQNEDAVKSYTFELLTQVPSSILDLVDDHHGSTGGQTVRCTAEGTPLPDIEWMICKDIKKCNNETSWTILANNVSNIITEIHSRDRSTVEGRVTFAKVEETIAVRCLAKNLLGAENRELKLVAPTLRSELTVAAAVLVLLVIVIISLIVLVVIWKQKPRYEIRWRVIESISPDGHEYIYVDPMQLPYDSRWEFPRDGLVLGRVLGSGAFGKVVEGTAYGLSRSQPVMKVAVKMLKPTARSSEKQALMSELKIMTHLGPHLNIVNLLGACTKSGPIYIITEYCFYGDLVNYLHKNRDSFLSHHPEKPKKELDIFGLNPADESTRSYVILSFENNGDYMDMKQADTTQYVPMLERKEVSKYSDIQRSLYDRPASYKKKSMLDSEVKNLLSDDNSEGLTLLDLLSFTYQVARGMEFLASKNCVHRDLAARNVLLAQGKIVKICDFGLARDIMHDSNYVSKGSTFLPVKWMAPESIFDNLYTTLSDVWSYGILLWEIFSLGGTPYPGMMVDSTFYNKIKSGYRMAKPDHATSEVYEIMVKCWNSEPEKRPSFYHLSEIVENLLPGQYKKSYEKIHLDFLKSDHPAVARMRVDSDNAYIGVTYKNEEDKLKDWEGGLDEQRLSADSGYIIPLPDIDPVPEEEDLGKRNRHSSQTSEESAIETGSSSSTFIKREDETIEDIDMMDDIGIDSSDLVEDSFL
Experiment [1] relates to M-NFS-60 mouse myeloid leukemia lymphocytes. The experiment in a line: CSF-1R-related cell proliferation experiment (Cell Titer Glo), M-NFS-60 cells with M-CSF. Format: cell-based. Particulars: Lymphocyte, 72 h, 3 days, CTG, * = average of multiple tests. As to the method:
C. CSF-1R-Related Cell Proliferation Experiment
Functional effects of compounds on cell proliferation were evaluated by using Cell Titer Glo (CTG) study in the present invention. M-NFS-60 mouse myeloid leukemia lymphocytes (cat. No. CCBJ078) from National Institutes For Food and Drug Control were cultured in the incubator under conditions of RPMI 1640 (Gibco, cat. No. 11875-119), 10% fetal bovine serum (Gibco, 10099-141), human 10 ng/mL M-CSF macrophage colony-stimulating factor (R&D, cat. No. MVN0915101), 37° C., and 5% CO2. Since ATP is an index for viable cell metabolism, CTG (Promega, #G7573) reagent is a homogeneous detection method for detecting the number of viable cells in the culture by quantifying ATP. Therefore, compound-mediated inhibition for cell proliferation/survival was evaluated by quantifying ATP content in cells, and the specific experimental process was as follows:
1. The cells were plated into a tissue-culture-medium-treated 96-well plate (Costar #3904) with 5,000 cells/well/80 μL fresh culture medium;
2. 24 hours later, 10 μL culture medium containing testing compound with 10-fold of final concentration was added to each well;
3. 10 μL of culture medium containing M-CSF with 10-fold of the final concentration was then added to each well;
4. dosage effect was evaluated by testing the 3-fold serial dilutions of the compound;
5. after the cells were incubated for 3 days at 37° C. and 5% CO2, the inhibition on cell survival was quantified after 50 μL of CTG was added and the luminescence assay was performed;
6. the compound concentration leading to half maximal inhibitory (IC50) and the compound concentration leading to absolute half maximal inhibitory (Absolute IC50) were measured by a plate reader (M1000, Tecan) and a four-parameter curve fit in Graphpad Prism 7.

CSF-1R, sequence (P07333 20-972): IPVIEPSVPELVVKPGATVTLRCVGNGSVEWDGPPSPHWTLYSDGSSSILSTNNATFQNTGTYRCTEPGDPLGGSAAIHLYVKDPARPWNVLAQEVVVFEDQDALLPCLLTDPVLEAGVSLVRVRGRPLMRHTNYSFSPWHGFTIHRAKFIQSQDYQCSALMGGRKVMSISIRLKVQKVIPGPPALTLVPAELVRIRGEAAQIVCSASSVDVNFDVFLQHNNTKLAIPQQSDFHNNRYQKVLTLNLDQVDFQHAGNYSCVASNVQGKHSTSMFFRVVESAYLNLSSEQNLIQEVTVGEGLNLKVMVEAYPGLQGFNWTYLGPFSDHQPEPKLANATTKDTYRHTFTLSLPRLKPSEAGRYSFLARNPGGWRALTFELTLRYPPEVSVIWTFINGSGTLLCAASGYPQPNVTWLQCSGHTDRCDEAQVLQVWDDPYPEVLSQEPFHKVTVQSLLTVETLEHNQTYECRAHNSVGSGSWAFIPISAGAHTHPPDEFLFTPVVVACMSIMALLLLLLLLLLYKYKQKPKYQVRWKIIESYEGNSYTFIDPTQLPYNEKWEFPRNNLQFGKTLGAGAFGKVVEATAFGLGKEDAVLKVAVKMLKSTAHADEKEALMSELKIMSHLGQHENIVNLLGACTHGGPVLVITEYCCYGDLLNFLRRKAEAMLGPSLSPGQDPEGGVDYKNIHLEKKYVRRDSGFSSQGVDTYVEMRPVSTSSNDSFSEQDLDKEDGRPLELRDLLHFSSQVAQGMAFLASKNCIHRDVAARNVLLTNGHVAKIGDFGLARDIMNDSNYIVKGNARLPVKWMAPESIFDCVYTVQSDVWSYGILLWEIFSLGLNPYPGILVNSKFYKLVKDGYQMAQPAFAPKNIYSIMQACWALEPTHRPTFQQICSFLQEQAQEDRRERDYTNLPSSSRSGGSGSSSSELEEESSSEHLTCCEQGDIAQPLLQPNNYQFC

As a reminder, the IC50 is the concentration that inhibits the measured activity by half. Take `Cc1nc(-c2cnc3n(c2=O)CCCN3C(C)C)ccc1Oc1ccnc(-c2cnn(C)c2)c1` [Example 5, 9-isopropyl-3-(6-methyl-5-((2-(1-methyl-1H-pyrazol-4-yl)pyridin-4-yl)oxy)pyridin-2-yl)-6,7,8,9-tetrahydro-4H-pyrimido[1,2-a]pyrimidin-4-one]: the IC50 on CSF-1R is 95.2 nM; on KIT kinase, 22.6 nM; on PDGFRA kinase, 226 nM; in experiment [1] (read-out: Cytological experiment CSF1R IC50) it was 127 nM; in experiment [1] (absolute half maximal inhibition, read-out: Cytological experiment CSF-1R Absolute IC50) it was 114 nM.
